{"source": "patent US20090142431A1", "about": "(U.S. Nutraceuticals, LLC d/b/a Valensa International, priority 2005, published 2009)", "key": {"[1]": {"system": "poxvirus vGK5", "format": "cell-based"}, "[2]": {"details": "compared with alpha-tocopherol; cited from earlier work"}}, "data": [{"molecule": "CC1=C(/C=C/C(C)=C/C=C/C(C)=C/C=C/C=C(C)/C=C/C=C(C)/C=C/C2=C(C)C(=O)C(O)CC2(C)C)C(C)(C)CC(O)C1=O", "note": "(stereo not drawn) [astaxanthin, 3,3′-dihydroxy-β,β-carotene-4,4′-dione]", "values": [{"measurement": "IC50", "setting": "[1]", "value": "less than 125 ppm"}, {"measurement": "ability to quench singlet oxygen relative to alpha-tocopherol", "setting": "[2]", "value": "over five hundred times"}]}]}
